Consider 4 compounds from ChEMBL document CHEMBL5543130, “Design, Synthesis, and In Vivo Evaluation of Isosteviol Derivatives as New SIRT3 Activators with Highly Potent Cardioprotective Effects” (J Med Chem, 2024).

As a reminder, the solubility is the concentration that dissolves in the medium under given conditions.

The source made the active and inactive calls. The rule behind the calls is not given here.

Data set [1] is described as follows: Toxicity in Tg(cmlc2: GFP) Zebrafish assessed as mortality at 450 uM measured at 72 hrs post fertilization. Set-up: species or system Danio rerio. To be noted: in vivo.
Data set [2] relates to Mus musculus. Put plainly: Cardioprotective activity against doxorubicin-induced C57BL/6 mouse cardiomyopathy model assessed as increase in ejection fraction at 2.5 mg/kg, ip administered for 7 days by Echocardiography analysis. To be noted: time 7 day. It is filed as functional.
Data set [3] is described as follows: Water solubility of the compound measured for 24 hrs by HPLC analysis. Type of data set: physicochemical.
For data set [4], the system named is Mus musculus. Put plainly: Cardioprotective activity against doxorubicin-induced C57BL/6 mouse cardiomyopathy model assessed as increase in cardiac output at 2.5 mg/kg, ip administered for 7 days by Echocardiography analysis. Type of data set: functional. The settings on record: time 7 day.
In data set [5] the test system is Mus musculus. Put plainly: Cardioprotective activity against doxorubicin-induced C57BL/6 mouse cardiomyopathy model assessed as increase in fractional shortening at 2.5 mg/kg, ip administered for 7 days by Echocardiography analysis. To be noted: time 7 day. It is filed as functional.
The subject of data set [6] is Mus musculus. Put plainly: Cardioprotective activity against doxorubicin-induced C57BL/6 mouse cardiomyopathy model assessed as increase in heart weight to tibia length ratio at 2.5 mg/kg, ip administered for 7 days by Echocardiography analysis. The settings on record: time 7 day. Type of data set: functional.
The test system of data set [7] is Danio rerio. In words: Cardioprotective activity against doxorubicin-induced Zebrafish cardiomyopathy model at 5 to 15 uM fertilized for 24 hrs followed by compound administration for 72 hrs and measured at 96 hrs post fertilization by inverted fluorescence microscopic analysis. It is filed as functional, organism-based. To be noted: dose 5-15 µM.
The nature of data set [8]: Toxicity in zebrafish embryos assessed as survival at upto 40 uM fertilized for 24 hrs followed by compound administration for 72 hrs and measured at 96 hrs post fertilization. The settings on record: in vivo. On the set-up: species or system Danio rerio.
Data set [9] is filed under the species Danio rerio. Put plainly: Cardioprotective activity against doxorubicin-induced Tg(cmlc2: GFP) Zebrafish assessed as restoration of normal heart structure at 10 uM measured at 72 hrs post fertilization. It is filed as functional, organism-based.
Data set [10] deals with Danio rerio. Put plainly: Cardioprotective activity against doxorubicin-induced Tg(cmlc2: GFP) Zebrafish assessed as […] at 10 uM measured at 72 hrs post fertilization. It is filed as functional, organism-based.
Data set [11] concerns Danio rerio. In words: Cardioprotective activity against doxorubicin-induced Zebrafish cardiomyopathy model assessed as survival rate at 10 uM fertilized for 24 hrs followed by compound administration for 72 hrs and measured at 96 hrs post fertilization by inverted fluorescence microscopic analysis. It is filed as functional.
Data set [12] has as its system Danio rerio. In words: Cardioprotective activity against doxorubicin-induced Tg(cmlc2: GFP) Zebrafish assessed as […] at 1 uM measured at 72 hrs post fertilization. It is filed as functional, organism-based.
Data set [13] is filed under the species Danio rerio. Put plainly: Cardioprotective activity against doxorubicin-induced Tg(cmlc2: GFP) Zebrafish assessed as reduction in Anp mRNA level measured at 72 hrs post fertilization by qPCR analysis. Type of data set: functional, organism-based. To be noted: dose <= 5.0 µM. A general note: In qPCR the cycle at which signal appears reflects the starting amount.

The test system of data set [14] is Danio rerio. Put plainly: Cardioprotective activity against doxorubicin-induced Zebrafish cardiomyopathy model assessed as survival rate at 1 uM fertilized for 24 hrs followed by compound administration for 72 hrs and measured at 96 hrs post fertilization by inverted fluorescence microscopic analysis. Type of data set: functional.
The species named for data set [15] is Danio rerio. In words: Cardioprotective activity against doxorubicin-induced Tg(cmlc2: GFP) Zebrafish assessed as reduction in Bnp mRNA level measured at 72 hrs post fertilization by qPCR analysis. Type of data set: functional, organism-based.
Data set [16] is filed under the species Danio rerio. In words: Cardioprotective activity against doxorubicin-induced Tg(cmlc2: GFP) Zebrafish assessed as reduction in cTnT mRNA level measured at 72 hrs post fertilization by qPCR analysis. Type of data set: functional, organism-based. To be noted: dose <= 5.0 µM.
For data set [17], the species on record is Danio rerio. Put plainly: Cardioprotective activity against doxorubicin-induced Tg(cmlc2: GFP) Zebrafish assessed as restoration of normal heart structure at 1 uM measured at 72 hrs post fertilization. It is filed as functional, organism-based.
For data set [18], the system named is Danio rerio. In words: Cardioprotective activity against doxorubicin-induced Tg(cmlc2: GFP) Zebrafish assessed as […] at 60 uM measured at 72 hrs post fertilization. Type of data set: functional, organism-based.
Data set [19] is filed under the species Danio rerio. Put plainly: Cardioprotective activity against doxorubicin-induced Tg(cmlc2: GFP) Zebrafish assessed as restoration of normal heart structure at 60 uM measured at 72 hrs post fertilization. It is filed as functional, organism-based.
Data set [20] relates to Danio rerio. In words: Cardioprotective activity against doxorubicin-induced Zebrafish cardiomyopathy model assessed as survival rate at 60 uM fertilized for 24 hrs followed by compound administration for 72 hrs and measured at 96 hrs post fertilization by inverted fluorescence microscopic analysis. It is filed as functional.
For data set [21], the system named is Danio rerio. Put plainly: Cardioprotective activity against doxorubicin-induced Zebrafish cardiomyopathy model assessed as survival rate at 40 uM fertilized for 24 hrs followed by compound administration for 72 hrs and measured at 96 hrs post fertilization by inverted fluorescence microscopic analysis. It is filed as functional.

Consider `C[C@@]12CC[C@@H]3[C@@](CC[C@H]4[C@@]3(C)CCC[C@@]4(C)C(=O)N3CCN(C(=O)c4ccccc4C(=O)[O-])CC3)(CC1=O)C2.[Na+]`, for which the Activity result is given as “Non-Toxic” in data set [1], 59.8% in the data set with Mus musculus [2], 10% in the data set on Mus musculus [4] and 31.3% with Mus musculus [5]. The compound also gave a solubility at 24 h in data set [3] of 54 mg/mL. In the data set with Mus musculus [6], the Ratio was 6.3 mg/mm.

Regarding `C[C@@]12CC[C@@H]3[C@@](CC[C@H]4[C@@]3(C)CCC[C@@]4(C)C(=O)O)(CC1=O)C2` [ISOSTEVIOL], the outcome with Danio rerio [7], in the data set filed under Danio rerio [9] and with Danio rerio [10] was Active. In addition, the Activity entry in [8] is reported as “Non-Toxic”. In the data set with Danio rerio [11], the survival at 10 µM amounted to 43%.

For `Cc1ccc(C(=O)O)c(C(=O)N2CCN(C(=O)[C@]3(C)CCC[C@@]4(C)[C@@H]5CC[C@@]6(C)C[C@]5(CC[C@@H]43)CC6=O)CC2)c1`, the Activity entry in [8] was “Non-Toxic”; in the data set filed under Danio rerio [13], “Dose-Dependent Effect”; in the data set listed under Danio rerio [15] it was “Dose-Dependent Effect”; in the data set listed under Danio rerio [16], “Dose-Dependent Effect”. The outcome in the data set on Danio rerio [12] and in the data set filed under Danio rerio [17] was Active. The survival at 1 µM in the data set on Danio rerio [14] is 90%.

As to `C[C@@H]1CC(=O)NN=C1c1ccc(NN=C(C#N)C#N)cc1` [LEVOSIMENDAN], the outcome in the data set with Danio rerio [18] and in the data set listed under Danio rerio [19] was Active. Besides, the survival at 60 µM in the data set with Danio rerio [20] worked out at 84%. The survival at 40 µM in the data set with Danio rerio [21] came out at 75%.
